Test results reported in patent US20090325959A1 (priority 2008, published 2009).
Where two headings read alike, the source gives them in different places.

Legend:
ROCK1 = target: T1, ROCK1 (Homo sapiens, UniProt Q13464); assay: Rho kinase inhibition assay (IMAP fluorescence polarization), ROCK1; type: biochemical;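 note: kinase reaction run 60 min at room temperature, then phosphorylated substrate captured on IMAP beads for 30 min, with fluorescence polarization read in mP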
T1 construct: purchased Upstate/Chemicon 14-601
T1 sequence (Q13464 17-535 limits assumed): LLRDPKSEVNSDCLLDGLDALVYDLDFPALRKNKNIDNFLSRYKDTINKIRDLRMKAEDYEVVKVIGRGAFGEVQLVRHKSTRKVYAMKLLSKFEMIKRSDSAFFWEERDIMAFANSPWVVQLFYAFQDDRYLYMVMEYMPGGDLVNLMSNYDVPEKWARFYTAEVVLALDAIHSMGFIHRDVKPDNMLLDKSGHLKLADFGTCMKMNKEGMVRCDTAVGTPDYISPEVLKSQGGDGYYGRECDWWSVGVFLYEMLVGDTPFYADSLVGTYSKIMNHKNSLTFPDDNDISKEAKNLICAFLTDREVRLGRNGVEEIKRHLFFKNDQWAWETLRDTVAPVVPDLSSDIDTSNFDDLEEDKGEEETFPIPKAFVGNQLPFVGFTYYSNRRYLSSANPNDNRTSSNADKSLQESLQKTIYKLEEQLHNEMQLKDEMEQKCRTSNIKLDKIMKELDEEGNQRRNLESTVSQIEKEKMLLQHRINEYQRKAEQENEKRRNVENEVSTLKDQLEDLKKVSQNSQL
Method: (§2) Following the pre-incubation, 10 μM ATP was added to initiate the reaction. After 60 minutes at room temperature, Molecular Devices IMAP™ binding solution was added to bind phosphorylated substrate. After 30 minutes of incubation in the presence of the IMAP™ beads, the fluorescence polarization was read and the ratio was reported as mP. IC50 values for compounds and EC50 values for ATP were calculated using the Prism software from Graphpad.

ROCK2 = target: T2, ROCK2 (Homo sapiens, UniProt O75116); assay: Rho kinase inhibition assay (IMAP fluorescence polarization), ROCK2; type: biochemical;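 note: kinase reaction started with 10 µM ATP and run 60 min at room temperature, then phosphorylated substrate captured on IMAP beads for 30 min and fluorescence polarization read in mP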
T2 construct: purchased Upstate/Chemicon 14-451
T2 sequence (O75116 11-552 limits assumed): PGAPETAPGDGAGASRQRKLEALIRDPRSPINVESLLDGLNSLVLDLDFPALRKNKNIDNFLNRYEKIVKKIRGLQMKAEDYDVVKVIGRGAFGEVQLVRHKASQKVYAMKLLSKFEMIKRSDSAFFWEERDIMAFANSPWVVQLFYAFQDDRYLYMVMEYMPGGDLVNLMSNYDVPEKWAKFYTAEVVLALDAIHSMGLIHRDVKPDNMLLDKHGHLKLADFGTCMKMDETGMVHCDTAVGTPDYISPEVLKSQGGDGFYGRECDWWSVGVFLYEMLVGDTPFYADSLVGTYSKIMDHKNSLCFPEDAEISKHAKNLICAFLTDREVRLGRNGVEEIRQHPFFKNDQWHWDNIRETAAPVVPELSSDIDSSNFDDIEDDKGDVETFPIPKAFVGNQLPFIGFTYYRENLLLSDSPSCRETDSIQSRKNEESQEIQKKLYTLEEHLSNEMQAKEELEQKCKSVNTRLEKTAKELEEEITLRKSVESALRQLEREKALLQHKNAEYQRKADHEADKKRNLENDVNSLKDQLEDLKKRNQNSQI
Method: as §2

human monocytes = assay: Human monocyte cytokine secretion assay (LPS-stimulated); type: cell-based; details: average percent of stimulated IL-6 secretion from human monocytes at 10 μM of test compound
Method: Peripheral blood from healthy human volunteers was collected and the monocytes isolated via Ficoll-paque density centrifugation. […] The cells were allowed to pre-incubate with test compound at the indicated concentration for 30 minutes (37° C., 5% CO2, humidified air); after which the supernatant was removed and media containing compound and 1 ng/mL LPS was added. Cells were allowed to incubate with compounds and LPS for 4 hours at 37° C. after which the supernatant was removed and stored at −80° C. Cytokine concentrations in the supernatant were determined using commercially available Bio-Rad Bio-plex™ kits according the manufacturer's instructions.

Akt3 human enzyme = target: T3, Akt3 human enzyme (Homo sapiens, UniProt Q9Y243); assay: Akt3 inhibition assay (IMAP FP); type: biochemical;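 note: kinase reaction run 60 min at room temperature after 30 µM ATP start, phosphorylated substrate captured on IMAP beads and read as fluorescence polarization (mP)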
T3 construct: purchased Upstate Chemicon 14-502
T3 sequence (Q9Y243 whole entry): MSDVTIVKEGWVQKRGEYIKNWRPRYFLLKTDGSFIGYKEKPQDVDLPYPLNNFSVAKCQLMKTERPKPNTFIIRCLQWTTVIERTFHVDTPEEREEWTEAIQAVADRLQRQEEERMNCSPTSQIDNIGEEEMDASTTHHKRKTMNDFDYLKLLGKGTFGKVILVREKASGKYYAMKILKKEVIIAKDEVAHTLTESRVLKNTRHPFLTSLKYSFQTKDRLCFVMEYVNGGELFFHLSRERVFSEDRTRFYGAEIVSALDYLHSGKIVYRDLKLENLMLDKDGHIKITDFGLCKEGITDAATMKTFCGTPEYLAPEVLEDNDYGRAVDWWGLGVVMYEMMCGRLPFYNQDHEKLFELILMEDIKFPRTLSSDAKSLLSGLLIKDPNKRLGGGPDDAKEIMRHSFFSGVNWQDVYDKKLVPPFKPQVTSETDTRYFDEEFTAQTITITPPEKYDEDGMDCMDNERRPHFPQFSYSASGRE

p70S6K human enzyme = target: T4, p70S6K human enzyme (Homo sapiens, UniProt P23443, T412E); assay: p70S6K inhibition assay (IMAP FP); type: biochemical;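 note: kinase reaction run at room temperature, phosphorylated substrate captured on IMAP beads and read as fluorescence polarization in mP, IC50 then converted to Ki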
T4 construct: purchased Upstate Chemicon 14-486
T4 sequence (P23443 1-421 T412E limits assumed): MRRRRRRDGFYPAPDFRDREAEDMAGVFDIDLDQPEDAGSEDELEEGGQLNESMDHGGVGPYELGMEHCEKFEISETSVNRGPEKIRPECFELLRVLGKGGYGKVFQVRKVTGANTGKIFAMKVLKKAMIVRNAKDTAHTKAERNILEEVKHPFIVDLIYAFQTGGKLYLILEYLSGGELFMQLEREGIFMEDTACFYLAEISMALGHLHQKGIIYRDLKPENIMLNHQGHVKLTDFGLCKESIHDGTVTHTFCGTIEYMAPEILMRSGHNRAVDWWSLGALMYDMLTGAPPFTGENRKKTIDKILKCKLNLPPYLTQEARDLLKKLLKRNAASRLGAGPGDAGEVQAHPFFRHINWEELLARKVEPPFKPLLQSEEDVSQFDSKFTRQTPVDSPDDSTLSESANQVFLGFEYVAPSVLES

[1] = Compound plasma concentrations in unsensitized mice at 15 min post administration; type: in vivo; details: mouse, 15 μmol/kg; mean compound plasma concentration in mice at 15 minutes post oral administration; read-out: Mouse Oral PK
[2] = tested on: A-10 rat thoracic aorta cells; assay: PDGF-stimulated smooth muscle cell proliferation assay (BrdU incorporation); type: cell-based; details: A-10 cells, 10 ng/mL PDGF, BrdU incorporation, percent of total challenge-stimulated proliferation; for Percent of PDGF Induced Proliferation at 1 μM Avg: 1 μM test compound; for Percent of PDGF Induced Proliferation at 10 μM Avg: 10 μM test compound;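 for all read-outs here: cells kept in serum-free medium, BrdU allowed to incorporate for 24 h, then incorporated label detected fluorometrically with an anti-BrdU antibody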
[3] = Rat oral pharmacokinetics (plasma); type: in vivo; details: 20-30 μmol/kg
[4] = tested on: ova-sensitized, ova-challenged mice; assay: Prevention of airway hyperreactivity (Penh, methacholine) in mouse ovalbumin sensitization model; type: in vivo
Method: The anti-inflammatory dosing paradigm consists of dosing the animals once a day starting on day 27 and finishing on either day 30 or 31 (1 hr prior to the aerosolized ovalbumin challenges on days 28 to 30) but not on day 32 when hyperreactivity evaluation occurs. […] Exposure to the methacholine doses consisted of a 3 minute period during which a nebulizer was aerosolizing the methacholine and an additional 3 minute period following the cessation of nebulization. […] Enhanced pause (Penh), a unitless index of airway hyperreactivity, is derived from the expiratory side of the respiratory waveform measured via the plethysmograph and is used as an indirect measure of airway resistance and hyperreactivity. […] Following the methacholine dose response, BALF was collected and all animals were anesthetized, bled and euthanized. […] The Penh value at each of the dose levels of methacholine represents the 6-minute average response. Change from baseline (CFB) in Penh was calculated at each methacholine dose and the area under the curve (AUC) for these CFB values was calculated using the trapezoidal rule. This same approach was applied for each mouse across multiple experiments. […] Data from equal experimental conditions across experiments performed on different days were pooled for statistical analysis and data reporting. […] A random intercept for each experiment was assumed to account for possible similarities of the results obtained from a given experiment (i.e., as a “blocking effect”). […] For FIG. 9, linear AUC values from compound treated mice were reported as a percent of linear AUC values from vehicle-treated ovalbumin-sensitized/ovalbumin-challenged (asthmatic) mice.

ERK2 = target: T5, ERK2 (Homo sapiens, UniProt P28482); assay: Kinase panel screen (KinaseProfiler), ERK2; type: biochemical
T5 construct: purchased Upstate, Millipore Bioscience Division (KinaseProfiler service)
T5 sequence (P28482 whole entry): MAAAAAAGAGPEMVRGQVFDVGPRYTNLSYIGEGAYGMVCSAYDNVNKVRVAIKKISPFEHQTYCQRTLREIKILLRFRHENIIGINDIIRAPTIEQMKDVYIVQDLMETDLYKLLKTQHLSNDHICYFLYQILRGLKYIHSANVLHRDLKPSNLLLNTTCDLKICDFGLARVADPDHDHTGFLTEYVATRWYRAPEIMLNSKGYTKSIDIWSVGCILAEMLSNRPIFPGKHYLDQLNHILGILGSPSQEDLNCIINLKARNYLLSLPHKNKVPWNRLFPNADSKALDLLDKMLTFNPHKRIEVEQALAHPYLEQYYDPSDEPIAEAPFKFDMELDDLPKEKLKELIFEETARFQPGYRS
Method: (§1) Compounds of Formulae I and II were examined for activity against a selected panel of kinases using the KinaseProfiler™ enzyme profiling services (Upstate, Millipore Bioscience Division). Percent kinase activity at 10 μM and 1 μM test compound and 10 μM ATP was determined against 40 wild-type recombinant human kinases according to Upstate's standard protocol: ASK1, BTK, CSK, c-RAF, GCK, GSK3β, IKKα, IKKβ, IRAK1, IRAK4, JNK1α1, JNK2α2, JNK3, ERK1, ERK2, MAPKAP-K2, MAPKAP-K3, MEK1, MKK4, MKK6, MKK7β, Mnk2, MSK1, PAK3, PDK1, PRAK, ROCK1, Rsk2, SAPK2a, SAPK2b, SAPK3, SAPK4, SRPK1, SRPK2, Syk, TAK1, TBK1, PI3-Kβ, PI3-Kγ, PI3-Kδ.

Mnk2 = target: T6, Mnk2 (Homo sapiens, UniProt Q9HBH9); assay: Kinase panel screen (KinaseProfiler), Mnk2; type: biochemical; details: 10 μM ATP; for activity at 1 µM: 1 μM test compound, read-out: Mnk2 Percent inhibition, 1 μM; for activity at 10 µM: 10 μM test compound, read-out: Mnk2 Percent inhibition, 10 μM
T6 construct: purchased Upstate, Millipore Bioscience Division (KinaseProfiler service)
T6 sequence (Q9HBH9 whole entry): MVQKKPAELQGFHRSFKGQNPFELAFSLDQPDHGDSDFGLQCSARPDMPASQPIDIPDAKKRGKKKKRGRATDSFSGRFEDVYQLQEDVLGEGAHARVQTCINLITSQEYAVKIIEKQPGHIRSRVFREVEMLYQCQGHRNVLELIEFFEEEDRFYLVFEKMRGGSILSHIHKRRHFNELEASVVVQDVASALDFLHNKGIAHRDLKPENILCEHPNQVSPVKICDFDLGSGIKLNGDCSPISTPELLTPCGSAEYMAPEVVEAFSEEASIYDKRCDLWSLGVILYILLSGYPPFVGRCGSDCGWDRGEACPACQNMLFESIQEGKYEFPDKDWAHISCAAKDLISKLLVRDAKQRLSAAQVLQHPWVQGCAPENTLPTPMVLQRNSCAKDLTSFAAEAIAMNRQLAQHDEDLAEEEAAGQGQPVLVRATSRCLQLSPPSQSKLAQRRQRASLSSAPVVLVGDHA
Method: as §1

IRAK4 = target: T7, IRAK4 (Homo sapiens, UniProt Q9NWZ3); assay: Kinase panel screen (KinaseProfiler), IRAK4; type: biochemical; details: 10 μM ATP; for activity at 1 µM: 1 μM test compound, read-out: IRAK4 Percent inhibition, 1 μM; for activity at 10 µM: 10 μM test compound, read-out: IRAK4 Percent inhibition, 10 μM
T7 construct: purchased Upstate, Millipore Bioscience Division (KinaseProfiler service)
T7 sequence (Q9NWZ3 1-460): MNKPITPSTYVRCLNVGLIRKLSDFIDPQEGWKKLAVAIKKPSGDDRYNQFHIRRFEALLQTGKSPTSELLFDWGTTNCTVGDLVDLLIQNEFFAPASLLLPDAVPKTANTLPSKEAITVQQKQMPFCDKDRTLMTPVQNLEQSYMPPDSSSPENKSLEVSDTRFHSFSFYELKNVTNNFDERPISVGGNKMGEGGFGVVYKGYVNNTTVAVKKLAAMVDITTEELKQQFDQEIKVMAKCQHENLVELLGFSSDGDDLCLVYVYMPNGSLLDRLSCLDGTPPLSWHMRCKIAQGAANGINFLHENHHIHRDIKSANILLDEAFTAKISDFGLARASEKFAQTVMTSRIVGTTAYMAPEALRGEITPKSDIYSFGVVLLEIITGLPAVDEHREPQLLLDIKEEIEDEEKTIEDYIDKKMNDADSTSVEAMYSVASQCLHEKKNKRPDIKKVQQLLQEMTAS
Method: as §1

IRAK1 = target: T8, IRAK1 (Homo sapiens, UniProt P51617); assay: Kinase panel screen (KinaseProfiler), IRAK1; type: biochemical; details: 10 μM ATP; for activity at 1 µM: 1 μM test compound, read-out: IRAK1 Percent inhibition, 1 μM; for activity at 10 µM: 10 μM test compound, read-out: IRAK1 Percent inhibition, 10 μM
T8 construct: purchased Upstate, Millipore Bioscience Division (KinaseProfiler service)
T8 sequence (P51617 whole entry): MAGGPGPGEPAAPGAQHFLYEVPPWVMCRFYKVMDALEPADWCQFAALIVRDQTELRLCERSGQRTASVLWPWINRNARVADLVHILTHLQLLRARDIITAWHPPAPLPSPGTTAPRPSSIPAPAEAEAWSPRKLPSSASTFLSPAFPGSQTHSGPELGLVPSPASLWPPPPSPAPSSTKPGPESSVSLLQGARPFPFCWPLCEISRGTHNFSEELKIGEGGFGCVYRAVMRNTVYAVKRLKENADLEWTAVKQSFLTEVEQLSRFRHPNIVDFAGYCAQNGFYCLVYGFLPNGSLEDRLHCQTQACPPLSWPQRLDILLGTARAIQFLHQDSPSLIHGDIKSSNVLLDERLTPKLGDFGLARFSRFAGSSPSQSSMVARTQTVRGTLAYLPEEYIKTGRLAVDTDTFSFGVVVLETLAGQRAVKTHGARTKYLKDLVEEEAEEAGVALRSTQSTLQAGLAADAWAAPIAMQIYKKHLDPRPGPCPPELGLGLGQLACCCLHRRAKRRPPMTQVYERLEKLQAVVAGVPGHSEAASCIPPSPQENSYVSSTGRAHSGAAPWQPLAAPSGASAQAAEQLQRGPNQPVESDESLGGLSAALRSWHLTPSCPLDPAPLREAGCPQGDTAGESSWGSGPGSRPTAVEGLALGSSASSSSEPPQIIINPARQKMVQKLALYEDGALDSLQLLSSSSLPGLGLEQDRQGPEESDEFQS
Method: as §1

GCK = target: T9, GCK (Homo sapiens, UniProt Q12851); assay: Kinase panel screen (KinaseProfiler), GCK; type: biochemical; details: for activity at 10 µM: 10 μM test compound, 10 μM ATP, read-out: GCK Percent inhibition, 10 μM
T9 construct: purchased Upstate, Millipore Bioscience Division (KinaseProfiler service)
T9 sequence (Q12851 1-820): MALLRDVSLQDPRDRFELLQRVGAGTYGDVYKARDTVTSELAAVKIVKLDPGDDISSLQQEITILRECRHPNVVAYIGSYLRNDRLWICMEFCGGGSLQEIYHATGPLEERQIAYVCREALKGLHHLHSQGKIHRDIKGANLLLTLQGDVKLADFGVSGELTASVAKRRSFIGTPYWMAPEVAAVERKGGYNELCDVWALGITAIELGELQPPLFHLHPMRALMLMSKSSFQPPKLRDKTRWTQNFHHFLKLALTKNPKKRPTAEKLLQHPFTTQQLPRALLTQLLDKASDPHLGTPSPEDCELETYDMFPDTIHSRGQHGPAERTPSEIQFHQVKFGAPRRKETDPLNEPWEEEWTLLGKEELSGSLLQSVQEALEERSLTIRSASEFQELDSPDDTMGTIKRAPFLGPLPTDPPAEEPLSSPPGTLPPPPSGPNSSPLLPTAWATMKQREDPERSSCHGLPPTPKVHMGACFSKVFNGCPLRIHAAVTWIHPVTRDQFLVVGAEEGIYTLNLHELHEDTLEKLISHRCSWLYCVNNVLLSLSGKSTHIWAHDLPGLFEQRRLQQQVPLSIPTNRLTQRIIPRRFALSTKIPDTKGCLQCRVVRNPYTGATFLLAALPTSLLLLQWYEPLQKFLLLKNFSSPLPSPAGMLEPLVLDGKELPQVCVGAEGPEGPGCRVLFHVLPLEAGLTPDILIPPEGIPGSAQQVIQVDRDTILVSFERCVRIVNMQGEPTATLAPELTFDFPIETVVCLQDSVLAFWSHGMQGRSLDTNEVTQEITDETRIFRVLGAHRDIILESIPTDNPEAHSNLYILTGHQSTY
Method: as §1

ERK1 = target: T10, ERK1 (Homo sapiens, UniProt P27361); assay: Kinase panel screen (KinaseProfiler), ERK1; type: biochemical; details: 10 μM ATP
T10 construct: purchased Upstate, Millipore Bioscience Division (KinaseProfiler service)
T10 sequence (P27361 whole entry): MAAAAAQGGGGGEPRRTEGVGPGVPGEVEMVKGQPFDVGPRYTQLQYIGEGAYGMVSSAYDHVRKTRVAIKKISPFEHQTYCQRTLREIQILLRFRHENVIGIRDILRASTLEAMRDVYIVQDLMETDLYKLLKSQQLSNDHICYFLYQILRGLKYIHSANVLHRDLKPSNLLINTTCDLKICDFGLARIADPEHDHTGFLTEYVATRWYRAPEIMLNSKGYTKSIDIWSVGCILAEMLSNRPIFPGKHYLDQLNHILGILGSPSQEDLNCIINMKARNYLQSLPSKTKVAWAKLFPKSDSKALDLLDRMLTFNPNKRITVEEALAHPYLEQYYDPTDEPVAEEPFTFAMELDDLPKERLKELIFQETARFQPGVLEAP
Method: as §1

[5] = 10 μM ATP, read-out: ROCK2 Ki, Avg
[6] = 30 μM ATP, Ki=IC50/(1+([ATP Challenge]/EC50 ATP)), read-out: Akt3 Ki, Avg
[7] = 30 μM ATP, Ki=IC50/(1+([ATP Challenge]/EC50 ATP)), read-out: p70S6K Ki, Avg
[8] = average Ki, read-out: p70S6K Ki

| Compound | Ki (ROCK1; Avg, 10 μM ATP) [µM] | Ki (ROCK1; average Ki) [µM] | Ki (ROCK2; [5]) [µM] | Ki (ROCK2; average Ki, read-out: ROCK2 Ki) [µM] | IL-6, % (human monocytes) [%] | Ki (Akt3 human enzyme; [6]) [µM] | Ki (Akt3 human enzyme; average Ki, read-out: Akt3 Ki) [µM] | Ki (p70S6K human enzyme; [7]) [µM] | Ki (p70S6K human enzyme; [8]) [µM] | concentration at 15 min [1] [nM] | Percent of PDGF Induced Proliferation at 1 μM Avg [2] [%] | Percent of PDGF Induced Proliferation at 10 μM Avg [2] [%] | ERK2 Percent inhibition, 1 μM (ERK2) [%] | ERK2 Percent inhibition, 10 μM (ERK2) [%] | activity at 1 µM (Mnk2) [%] | activity at 10 µM (Mnk2) [%] | activity at 1 µM (IRAK4) [%] | activity at 10 µM (IRAK4) [%] | activity at 1 µM (IRAK1) [%] | activity at 10 µM (IRAK1) [%] | other results |
| --- | --- | --- | --- | --- | --- | --- | --- | --- | --- | --- | --- | --- | --- | --- | --- | --- | --- | --- | --- | --- | --- |
| NC(=O)Cn1ccc2ccc(CN3CC[C@@H](Nc4cccc5cnccc45)C3)cc21 [Compound 2.058, (R)-2-(6-((3-(isoquinolin-5-ylamino)pyrrolidin-1-yl)methyl)-1H-indol-1-yl)acetamide] | 0.0153 | 0.0153 | 0.0033 | 0.0033 | 1.3 | 1.94 | 1.94 | 0.213 | 0.213 | 194 | – | – | – | – | – | – | – | – | – | – | – |
| CSc1ccc(CN2CCC[C@@H](Nc3ccc4[nH]ncc4c3)C2)cc1 [Compound 1.074, (R)-N-(1-(4-(methylthio)benzyl)piperidin-3-yl)-1H-indazol-5-amine] | 0.0401 | 0.0401 | 0.0041 | 0.0041 | 96.0 | 0.437 | 0.437 | 0.548 | 0.548 | 506 | 79.9 | 46.9 | – | – | – | – | – | – | – | – | Vz_F ([3]; mean n = 3): 45.7 L/kg; AUC(0-t) ([3]; male, CD Sprague Dawley, mean n = 3): 1.17 µM·h; Cmax ([3]; male, CD Sprague Dawley, mean n = 3, read-out: Cmax): 735 nM; Tmax ([3]; male, CD Sprague Dawley, mean n = 3, read-out: Tmax): 25.2 min |
| Cc1ccc(CN2CCC[C@@H](Nc3ccc4[nH]ncc4c3)C2)cc1OCCO [Compound 1.161, (R)-2-(5-((3-(1H-indazol-5-ylamino)piperidin-1-yl)methyl)-2-methylphenoxy)ethanol] | 0.0099 | 0.0099 | 0.0025 | 0.0025 | – | 0.0635 | 0.0635 | 0.129 | 0.129 | – | – | – | 104 | 92 | 108 | 106 | 96 | 109 | 106 | 99 | log10AUC (Penh) ([4]; 0.5 μmol/kg/intratracheal, days 27 to 31): 2.0405; airway hyperreactivity ([4]; intratracheal once a day during days 27 to 31): prevention of airway hyperreactivity; GCK Percent inhibition, 1 μM (GCK): 96%; activity at 10 µM (GCK): 91% |
| NC(=O)Cn1ccc2cc(CN3CCC[C@@H](Nc4ccc5[nH]ncc5c4)C3)ccc21 [Compound 1.162, (R)-2-(5-((3-(1H-indazol-5-ylamino)piperidin-1-yl)methyl)-1H-indol-1-yl)acetamide] | 0.0152 | 0.0152 | 0.0028 | 0.0028 | – | 0.092 | 0.092 | 0.387 | 0.387 | 76 | 55.6 | 42.5 | 89 | 60 | 111 | 65 | 105 | 88 | 100 | 97 | activity at 1 µM (ERK1; 1 μM test compound, read-out: ERK1 Percent inhibition, 1 μM): 84%; activity at 10 µM (ERK1; 10 μM test compound, read-out: ERK1 Percent inhibition, 10 μM): 50%; GCK Percent inhibition, 1 μM (GCK): 93%; activity at 10 µM (GCK): 75% |
